Test results: ChEMBL document CHEMBL1139874, “New diphenylacetylenes as probes for positron emission tomographic imaging of amyloid plaques” (J Med Chem, 2007)
One block for each compound: values may come before it.

Experiments:
[1] = target: Amyloid-beta precursor protein (Homo sapiens, UniProt P05067); experiment: Displacement of [125I]IMPY from human beta amyloid plaque in brain homogenates; assay type: tissue-based
[2] = system: Spleen; experiment: Biodistribution in ICR mouse spleen at 5 to 10 uCi, iv after 2 mins; assay type: ADME, organism-based; settings: in vivo
[3] = system: Brain; experiment: Biodistribution in ICR mouse brain at 5 to 10 uCi, iv after 2 hrs; assay type: ADME, organism-based; settings: in vivo
[4] = Partition coefficient, log P at pH 7.4; assay type: physicochemical; settings: octanol/water
[5] = system: Spleen; experiment: Biodistribution in ICR mouse spleen at 5 to 10 uCi, iv after 1 hr; assay type: ADME, organism-based; settings: in vivo
[6] = system: Muscle tissue; experiment: Biodistribution in ICR mouse muscle at 5 to 10 uCi, iv after 2 mins; assay type: ADME, organism-based; settings: in vivo
[7] = system: Zone of skin; experiment: Biodistribution in ICR mouse skin at 5 to 10 uCi, iv after 30 mins; assay type: ADME, organism-based; settings: in vivo, 0.5 h
[8] = system: Kidney; experiment: Biodistribution in ICR mouse kidney at 5 to 10 uCi, iv after 2 mins; assay type: ADME, organism-based; settings: in vivo
[9] = system: Lung; experiment: Biodistribution in ICR mouse lung at 5 to 10 uCi, iv after 30 mins; assay type: ADME, organism-based; settings: in vivo, 0.5 h
[10] = system: Liver; experiment: Biodistribution in ICR mouse liver at 5 to 10 uCi, iv after 2 mins; assay type: ADME, organism-based; settings: in vivo
[11] = system: Zone of skin; experiment: Biodistribution in ICR mouse skin at 5 to 10 uCi, iv after 1 hr; assay type: ADME, organism-based; settings: in vivo
[12] = system: Muscle tissue; experiment: Biodistribution in ICR mouse muscle at 5 to 10 uCi, iv after 2 hrs; assay type: ADME, organism-based; settings: in vivo
[13] = system: Liver; experiment: Biodistribution in ICR mouse liver at 5 to 10 uCi, iv after 1 hr; assay type: ADME, organism-based; settings: in vivo
[14] = system: Heart; experiment: Biodistribution in ICR mouse heart at 5 to 10 uCi, iv after 1 hr; assay type: ADME, organism-based; settings: in vivo
[15] = system: Brain; experiment: Biodistribution in ICR mouse brain at 5 to 10 uCi, iv after 1 hr; assay type: ADME, organism-based; settings: in vivo
[16] = system: Heart; experiment: Biodistribution in ICR mouse heart at 5 to 10 uCi, iv after 30 mins; assay type: ADME, organism-based; settings: in vivo, 0.5 h
[17] = system: Bone; experiment: Biodistribution in ICR mouse bone at 5 to 10 uCi, iv after 2 mins; assay type: ADME, organism-based, Bone element; settings: in vivo
[18] = system: Brain; experiment: Biodistribution in ICR mouse brain at 5 to 10 uCi, iv after 2 mins; assay type: ADME, organism-based; settings: in vivo
[19] = system: Muscle tissue; experiment: Biodistribution in ICR mouse muscle at 5 to 10 uCi, iv after 1 hr; assay type: ADME, organism-based; settings: in vivo
[20] = system: Bone; experiment: Biodistribution in ICR mouse bone at 5 to 10 uCi, iv after 1 hr; assay type: ADME, organism-based, Bone element; settings: in vivo
[21] = system: Blood; experiment: Biodistribution in ICR mouse blood at 5 to 10 uCi, iv after 30 mins; assay type: ADME, organism-based; settings: in vivo, 0.5 h
[22] = system: Spleen; experiment: Biodistribution in ICR mouse spleen at 5 to 10 uCi, iv after 2 hrs; assay type: ADME, organism-based; settings: in vivo
[23] = system: Muscle tissue; experiment: Biodistribution in ICR mouse muscle at 5 to 10 uCi, iv after 30 mins; assay type: ADME, organism-based; settings: in vivo, 0.5 h
[24] = system: Blood; experiment: Biodistribution in ICR mouse blood at 5 to 10 uCi, iv after 1 hr; assay type: ADME, organism-based; settings: in vivo
[25] = system: Kidney; experiment: Biodistribution in ICR mouse kidney at 5 to 10 uCi, iv after 2 hrs; assay type: ADME, organism-based; settings: in vivo
[26] = system: Brain; experiment: Biodistribution in ICR mouse brain at 5 to 10 uCi, iv after 30 mins; assay type: ADME, organism-based; settings: in vivo, 0.5 h
[27] = system: Lung; experiment: Biodistribution in ICR mouse lung at 5 to 10 uCi, iv after 2 mins; assay type: ADME, organism-based; settings: in vivo
[28] = system: Kidney; experiment: Biodistribution in ICR mouse kidney at 5 to 10 uCi, iv after 1 hr; assay type: ADME, organism-based; settings: in vivo
[29] = system: Liver; experiment: Biodistribution in ICR mouse liver at 5 to 10 uCi, iv after 2 hrs; assay type: ADME, organism-based; settings: in vivo
[30] = system: Heart; experiment: Biodistribution in ICR mouse heart at 5 to 10 uCi, iv after 2 mins; assay type: ADME, organism-based; settings: in vivo
[31] = system: Zone of skin; experiment: Biodistribution in ICR mouse skin at 5 to 10 uCi, iv after 2 mins; assay type: ADME, organism-based; settings: in vivo
[32] = system: Zone of skin; experiment: Biodistribution in ICR mouse skin at 5 to 10 uCi, iv after 2 hrs; assay type: ADME, organism-based; settings: in vivo
[33] = system: Heart; experiment: Biodistribution in ICR mouse heart at 5 to 10 uCi, iv after 2 hrs; assay type: ADME, organism-based; settings: in vivo
[34] = system: Lung; experiment: Biodistribution in ICR mouse lung at 5 to 10 uCi, iv after 1 hr; assay type: ADME, organism-based; settings: in vivo
[35] = system: Spleen; experiment: Biodistribution in ICR mouse spleen at 5 to 10 uCi, iv after 30 mins; assay type: ADME, organism-based; settings: in vivo, 0.5 h
[36] = system: Bone; experiment: Biodistribution in ICR mouse bone at 5 to 10 uCi, iv after 30 mins; assay type: ADME, organism-based, Bone element; settings: in vivo, 0.5 h
[37] = system: Liver; experiment: Biodistribution in ICR mouse liver at 5 to 10 uCi, iv after 30 mins; assay type: ADME, organism-based; settings: in vivo, 0.5 h
[38] = system: Kidney; experiment: Biodistribution in ICR mouse kidney at 5 to 10 uCi, iv after 30 mins; assay type: ADME, organism-based; settings: in vivo, 0.5 h
[39] = system: Blood; experiment: Biodistribution in ICR mouse blood at 5 to 10 uCi, iv after 2 mins; assay type: ADME, organism-based; settings: in vivo
[40] = system: Blood; experiment: Biodistribution in ICR mouse blood at 5 to 10 uCi, iv after 2 hrs; assay type: ADME, organism-based; settings: in vivo
[41] = system: Lung; experiment: Biodistribution in ICR mouse lung at 5 to 10 uCi, iv after 2 hrs; assay type: ADME, organism-based; settings: in vivo
[42] = system: Bone; experiment: Biodistribution in ICR mouse bone at 5 to 10 uCi, iv after 2 hrs; assay type: ADME, organism-based, Bone element; settings: in vivo

Sequence of Amyloid-beta precursor protein (P05067 whole entry): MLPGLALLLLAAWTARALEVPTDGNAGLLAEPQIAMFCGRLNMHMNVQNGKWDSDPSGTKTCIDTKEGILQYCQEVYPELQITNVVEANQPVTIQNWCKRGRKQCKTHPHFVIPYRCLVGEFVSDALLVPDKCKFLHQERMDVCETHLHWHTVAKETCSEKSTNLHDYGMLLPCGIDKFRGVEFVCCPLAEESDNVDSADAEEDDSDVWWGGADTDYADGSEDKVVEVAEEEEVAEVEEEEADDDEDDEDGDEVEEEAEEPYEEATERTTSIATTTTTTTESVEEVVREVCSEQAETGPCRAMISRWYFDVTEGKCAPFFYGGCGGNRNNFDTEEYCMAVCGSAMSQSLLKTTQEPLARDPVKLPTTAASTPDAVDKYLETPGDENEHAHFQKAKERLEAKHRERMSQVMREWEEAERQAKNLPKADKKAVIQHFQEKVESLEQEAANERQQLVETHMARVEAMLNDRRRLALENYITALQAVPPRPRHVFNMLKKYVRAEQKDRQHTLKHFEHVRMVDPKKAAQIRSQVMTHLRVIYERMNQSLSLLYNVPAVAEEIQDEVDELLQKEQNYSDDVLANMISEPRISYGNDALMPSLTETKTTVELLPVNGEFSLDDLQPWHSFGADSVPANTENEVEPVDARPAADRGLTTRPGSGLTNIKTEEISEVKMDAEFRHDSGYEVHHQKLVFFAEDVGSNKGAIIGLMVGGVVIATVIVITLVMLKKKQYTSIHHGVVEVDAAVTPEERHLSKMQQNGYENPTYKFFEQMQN

Ki [1]: 1.5 nM
Compound: CNc1ccc(C#Cc2ccc(O)cc2)cc1

Ki [1]: 21.5 nM
Compound: Nc1ccc(C#Cc2ccc(OCCOCCOCCF)cc2)cc1

Drug uptake [2]: 4.61 % ID/g | Drug uptake [3]: 0.42 % ID/g | logD [4]: 3.18 | Drug uptake [5]: 1.13 % ID/g | Drug uptake [6]: 0.79 % ID/g | Drug uptake [7]: 1.41 % ID/g | Drug uptake [8]: 12.4 % ID/g | Drug uptake [9]: 2.26 % ID/g | Drug uptake [10]: 23.2 % ID/g | Drug uptake [11]: 1.28 % ID/g | Drug uptake [12]: 0.42 % ID/g | Drug uptake [13]: 8.13 % ID/g | Drug uptake [14]: 1.04 % ID/g | Drug uptake [15]: 0.77 % ID/g | Drug uptake [16]: 1.49 % ID/g | Drug uptake [17]: 1.51 % ID/g | Drug uptake [18]: 6.78 % ID/g | Drug uptake [19]: 0.51 % ID/g | Drug uptake [20]: 0.56 % ID/g | Drug uptake [21]: 2.97 % ID/g | Drug uptake [22]: 1.17 % ID/g | Drug uptake [23]: 0.67 % ID/g | Drug uptake [24]: 2.51 % ID/g | Drug uptake [25]: 2.02 % ID/g | Drug uptake [26]: 1.57 % ID/g | Drug uptake [27]: 8.38 % ID/g | Drug uptake [28]: 2.53 % ID/g | Drug uptake [29]: 6.58 % ID/g | Drug uptake [30]: 9.97 % ID/g | Drug uptake [31]: 0.68 % ID/g | Drug uptake [32]: 0.68 % ID/g | Drug uptake [33]: 0.84 % ID/g | Drug uptake [34]: 1.26 % ID/g | Drug uptake [35]: 1.39 % ID/g | Drug uptake [36]: 0.64 % ID/g | Drug uptake [37]: 13.8 % ID/g | Drug uptake [38]: 2.68 % ID/g | Drug uptake [39]: 5.72 % ID/g | Drug uptake [40]: 2.35 % ID/g | Drug uptake [41]: 1.47 % ID/g | Drug uptake [42]: 0.7 % ID/g
Compound: CN(C)c1ccc(C#Cc2ccc(OCCOCCOCC[18F])cc2)cc1

Drug uptake [2]: 3.74 % ID/g | Drug uptake [3]: 0.82 % ID/g | logD [4]: 3.48 | Drug uptake [5]: 3.78 % ID/g | Drug uptake [6]: 0.79 % ID/g | Drug uptake [7]: 2.11 % ID/g | Drug uptake [8]: 5.55 % ID/g | Drug uptake [9]: 4.77 % ID/g | Drug uptake [10]: 29.6 % ID/g | Drug uptake [11]: 2.55 % ID/g | Drug uptake [12]: 1.26 % ID/g | Drug uptake [13]: 15.6 % ID/g | Drug uptake [14]: 3.54 % ID/g | Drug uptake [15]: 0.99 % ID/g | Drug uptake [16]: 2.84 % ID/g | Drug uptake [17]: 1.54 % ID/g | Drug uptake [18]: 4.42 % ID/g | Drug uptake [19]: 1.38 % ID/g | Drug uptake [20]: 1.92 % ID/g | Drug uptake [21]: 7.9 % ID/g | Drug uptake [22]: 3.3 % ID/g | Drug uptake [23]: 1.26 % ID/g | Drug uptake [24]: 10.3 % ID/g | Drug uptake [25]: 5.55 % ID/g | Drug uptake [26]: 1.03 % ID/g | Drug uptake [27]: 6.57 % ID/g | Drug uptake [28]: 6.17 % ID/g | Drug uptake [29]: 11.7 % ID/g | Drug uptake [30]: 4.73 % ID/g | Drug uptake [31]: 0.94 % ID/g | Drug uptake [32]: 2.04 % ID/g | Drug uptake [33]: 2.6 % ID/g | Drug uptake [34]: 6.01 % ID/g | Drug uptake [35]: 3.6 % ID/g | Drug uptake [36]: 1.46 % ID/g | Drug uptake [37]: 18.3 % ID/g | Drug uptake [38]: 4.78 % ID/g | Drug uptake [39]: 7.89 % ID/g | Drug uptake [40]: 7.84 % ID/g | Drug uptake [41]: 4.67 % ID/g | Drug uptake [42]: 2.07 % ID/g
Compound: CNc1ccc(C#Cc2ccc(OCCOCC[18F])cc2)cc1

Ki [1]: 16.5 nM
Compound: Oc1ccc(C#Cc2ccc(OCCOCCOCCF)cc2)cc1

Ki [1]: 2.9 nM
Compound: COc1ccc(C#Cc2ccc(N)cc2)cc1

Drug uptake [2]: 2.69 % ID/g | Drug uptake [3]: 0.38 % ID/g | logD [4]: 3.07 | Drug uptake [5]: 0.95 % ID/g | Drug uptake [6]: 1.97 % ID/g | Drug uptake [7]: 1.4 % ID/g | Drug uptake [8]: 4.74 % ID/g | Drug uptake [9]: 2.1 % ID/g | Drug uptake [10]: 25.8 % ID/g | Drug uptake [11]: 0.95 % ID/g | Drug uptake [12]: 0.39 % ID/g | Drug uptake [13]: 10.2 % ID/g | Drug uptake [14]: 1.24 % ID/g | Drug uptake [15]: 0.37 % ID/g | Drug uptake [16]: 1.4 % ID/g | Drug uptake [17]: 1.5 % ID/g | Drug uptake [18]: 4.55 % ID/g | Drug uptake [19]: 0.62 % ID/g | Drug uptake [20]: 0.65 % ID/g | Drug uptake [21]: 3.28 % ID/g | Drug uptake [22]: 1.02 % ID/g | Drug uptake [23]: 0.61 % ID/g | Drug uptake [24]: 3.22 % ID/g | Drug uptake [25]: 1.8 % ID/g | Drug uptake [26]: 0.42 % ID/g | Drug uptake [27]: 4.64 % ID/g | Drug uptake [28]: 2.4 % ID/g | Drug uptake [29]: 9.14 % ID/g | Drug uptake [30]: 4.21 % ID/g | Drug uptake [31]: 1.24 % ID/g | Drug uptake [32]: 0.6 % ID/g | Drug uptake [33]: 0.96 % ID/g | Drug uptake [34]: 2.04 % ID/g | Drug uptake [35]: 1.22 % ID/g | Drug uptake [36]: 0.66 % ID/g | Drug uptake [37]: 14.8 % ID/g | Drug uptake [38]: 2.9 % ID/g | Drug uptake [39]: 3.28 % ID/g | Drug uptake [40]: 3.17 % ID/g | Drug uptake [41]: 1.72 % ID/g | Drug uptake [42]: 0.82 % ID/g
Compound: CNc1ccc(C#Cc2ccc(OCCOCCOCC[18F])cc2)cc1

Ki [1]: 12 nM
Compound: Nc1ccc(C#Cc2ccc(OCCOCCF)cc2)cc1

Ki [1]: 67.6 nM
Compound: Nc1ccc(C#Cc2ccc(OCCOCCOCCO)cc2)cc1

Ki [1]: 76 nM
Compound: Nc1ccc(C#Cc2ccc(N)cc2)cc1

Ki [1]: 3.4 nM
Compound: CN(C)c1ccc(C#Cc2ccc(OCCOCCOCCO)cc2)cc1
